According to PubChem BioAssay AID1963861 (Molecular Pharmacology Branch, DTP, NCI, 2024):

Tested on: 885724-159-R-J1-PDC KRAS PDC multicell spheroid viability
Test: Anticancer human tumor 885724-159-R-J1-PDC patient-derived pancreatic adenocarcinoma cell line growth inhibition [KRAS2]
Settings: for IC50: curve of first compound; for viability, T/C: stronger effect = lower value
How it was run: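 Combination screen of spheroid viability in tumor-cell co-cultures with endothelial (HUVEC) and mesenchymal stem cell stroma. Each agent was tested in half-log dilutions, topping at clinical Cmax or at 10 microM without a known Cmax.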

[1] = second compound 0.1 µM, first compound 0.0316 µM
[2] = second compound 0.1 µM, first compound 0.1 µM
[3] = second compound 0.316 µM, first compound 0.0316 µM
[4] = second compound 0.316 µM, first compound 0.1 µM
[5] = second compound 1 µM, first compound 0.0316 µM
[6] = second compound 1 µM, first compound 0.1 µM
[7] = second compound 3.16 µM, first compound 0.0316 µM
[8] = second compound 3.16 µM, first compound 0.1 µM
[9] = second compound 10 µM, first compound 0.0316 µM
[10] = second compound 10 µM, first compound 0.1 µM
[11] = second compound 0.1 µM, first compound 0.316 µM
[12] = second compound 0.1 µM, first compound 1 µM
[13] = second compound 0.1 µM, first compound 3.16 µM
[14] = second compound 0.1 µM, first compound 10 µM
[15] = second compound 0.316 µM, first compound 0.316 µM
[16] = second compound 0.316 µM, first compound 1 µM
[17] = second compound 0.316 µM, first compound 3.16 µM
[18] = second compound 0.316 µM, first compound 10 µM
[19] = second compound 1 µM, first compound 0.316 µM
[20] = second compound 1 µM, first compound 1 µM
[21] = second compound 1 µM, first compound 3.16 µM
[22] = second compound 1 µM, first compound 10 µM
[23] = second compound 3.16 µM, first compound 0.316 µM
[24] = second compound 3.16 µM, first compound 1 µM
[25] = second compound 3.16 µM, first compound 3.16 µM
[26] = second compound 3.16 µM, first compound 10 µM
[27] = second compound 10 µM, first compound 0.316 µM
[28] = second compound 10 µM, first compound 1 µM
[29] = second compound 10 µM, first compound 3.16 µM
[30] = second compound 10 µM, first compound 10 µM
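Also: spheroids exposed to agents for 7 days before readout.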

| Compound | IC50 (second compound 0.1 µM) [nM] | IC50 (second compound 0.316 µM) [nM] | IC50 (second compound 1 µM) [nM] | IC50 (second compound 3.16 µM) [nM] | IC50 (second compound 10 µM) [nM] | viability, T/C [1] [%] | viability, T/C [2] [%] | viability, T/C [3] [%] | viability, T/C [4] [%] | viability, T/C [5] [%] | viability, T/C [6] [%] | viability, T/C [7] [%] | viability, T/C [8] [%] | viability, T/C [9] [%] | viability, T/C [10] [%] | viability, T/C [11] [%] | viability, T/C [12] [%] | viability, T/C [13] [%] | viability, T/C [14] [%] | viability, T/C [15] [%] | also measured |
| --- | --- | --- | --- | --- | --- | --- | --- | --- | --- | --- | --- | --- | --- | --- | --- | --- | --- | --- | --- | --- | --- |
| CC(C)n1nc(-c2ccc3oc(N)nc3c2)c2c(N)ncnc21 + CNCc1ccccc1-c1csc(C(C)Nc2nc(C)nc3cc(OC)c(OC)cc23)c1 | > 100 | 42 | 58.3 | < 0.316 | < 0.316 | 54.6 | 52.4 | 50.2 | 45.6 | 50.2 | 48.5 | 3.15 | 1.32 | 0.23 | 0.34 | – | – | – | – | – | viability, T/C (second compound 0.1 µM, first compound 0.000316 µM): 87%; viability, T/C (second compound 0.1 µM, first compound 0.001 µM): 81.1%; viability, T/C (second compound 0.1 µM, first compound 0.00316 µM): 73.6%; viability, T/C (second compound 0.1 µM, first compound 0.01 µM): 65%; viability, T/C (second compound 0.316 µM, first compound 0.000316 µM): 100%; viability, T/C (second compound 0.316 µM, first compound 0.001 µM): 75.3%; viability, T/C (second compound 0.316 µM, first compound 0.00316 µM): 70.7%; viability, T/C (second compound 0.316 µM, first compound 0.01 µM): 60.6%; viability, T/C (second compound 1 µM, first compound 0.000316 µM): 85.8%; viability, T/C (second compound 1 µM, first compound 0.001 µM): 76.2%; viability, T/C (second compound 1 µM, first compound 0.00316 µM): 69.2%; viability, T/C (second compound 1 µM, first compound 0.01 µM): 60.6%; viability, T/C (second compound 3.16 µM, first compound 0.000316 µM): 2.37%; viability, T/C (second compound 3.16 µM, first compound 0.001 µM): 11.2%; viability, T/C (second compound 3.16 µM, first compound 0.00316 µM): 2.11%; viability, T/C (second compound 3.16 µM, first compound 0.01 µM): 1.36%; viability, T/C (second compound 10 µM, first compound 0.000316 µM): 0.19%; viability, T/C (second compound 10 µM, first compound 0.001 µM): 0.31%; viability, T/C (second compound 10 µM, first compound 0.00316 µM): 0.18%; viability, T/C (second compound 10 µM, first compound 0.01 µM): 0.18% |
| COc1cc2nccc(Oc3ccc(NC(=O)C4(C(=O)Nc5ccc(F)cc5)CC4)cc3)c2cc1OC + CNCc1ccccc1-c1csc(C(C)Nc2nc(C)nc3cc(OC)c(OC)cc23)c1 | > 10000 | > 10000 | 1770 | < 31.6 | < 31.6 | 98.3 | 105 | 96.9 | 101 | 99 | 89.9 | 1.16 | 0.87 | 0.39 | 0.36 | 99.2 | 103 | 69.5 | 61.3 | 95.3 | viability, T/C [16]: 90%; viability, T/C [17]: 61.6%; viability, T/C [18]: 58.7%; viability, T/C [19]: 85.1%; viability, T/C [20]: 86.1%; viability, T/C [21]: 13.3%; viability, T/C [22]: 12.6%; viability, T/C [23]: 1.19%; viability, T/C [24]: 0.42%; viability, T/C [25]: 0.32%; viability, T/C [26]: 0.42%; viability, T/C [27]: 0.17%; viability, T/C [28]: 0.18%; viability, T/C [29]: 0.51%; viability, T/C [30]: 0.47% |
| COc1cc2nccc(Oc3ccc(NC(=O)C4(C(=O)Nc5ccc(F)cc5)CC4)cc3)c2cc1OC + CC1OCC2(CCN(c3cnc(Sc4ccnc(N)c4Cl)c(N)n3)CC2)C1N | > 10000 | > 10000 | 3120 | 2980 | 2210 | 87.1 | 87.9 | 84.7 | 79.9 | 74.3 | 71.2 | 75.5 | 82.8 | 71.4 | 62.9 | 87.9 | 82.7 | 59.1 | 63 | 83.7 | viability, T/C [16]: 84.7%; viability, T/C [17]: 60.5%; viability, T/C [18]: 51.1%; viability, T/C [19]: 76.2%; viability, T/C [20]: 72.5%; viability, T/C [21]: 49.1%; viability, T/C [22]: 50.3%; viability, T/C [23]: 72.1%; viability, T/C [24]: 67.7%; viability, T/C [25]: 45.8%; viability, T/C [26]: 52.3%; viability, T/C [27]: 67.4%; viability, T/C [28]: 63.3%; viability, T/C [29]: 44%; viability, T/C [30]: 39.4% |
